# Results: a melting point compilation (Tetko et al.; mined from patent text by program, amines drawn as free bases though some values may be those of a salt)
row,Structure (SMILES),melting point
1,O=C1N[C@H](Cc2ccc(Oc3ccccc3)cc2)[C@H](c2ccc(F)cc2)O1 (racemic),144 to 145 °C
2,CCOC(=O)CC(NC(=O)c1ccc(F)cc1)C(=O)c1ccco1 (stereo unspecified),95.5 to 97 °C
3,Cc1noc(NC(=O)C2c3ccccc3Oc3ccccc32)n1,208 °C
4,CN1Cc2c(C=O)ncn2-c2ccccc2C1=O,202 to 203 °C
5,CCCC(=O)NCCc1c(OC)ccc2ccccc12,73 to 79 °C
6,Clc1nc2nc(Cl)sc2s1,180 °C
7,O=C(O)c1nc2c(=O)[nH]c3cc(C(F)(F)F)ccc3n2c1CBr,> 250 °C
8,CC1(C)Oc2ccc(C#N)cc2C(Oc2cccnn2)C1(C)O (stereo unspecified),93 to 105 °C
9,O=C(OCCCCCCCCCCCCCCCCOc1ccc(-c2cccc(F)c2F)cc1)C(CCCCCCO)CCCCCCO,45.2 to 48.8 °C
10,CCc1cc2c(ccc(=O)n2Cc2ccc(C(=O)O)cc2)c(CC)n1,143 to 146 °C
11,O=c1cc(C(F)(F)F)[nH]n1-c1ccccc1,193 °C
12,CCn1c(C=O)c(-c2ccc(F)cc2)c(C(C)C)c1C(=O)O,182 °C
13,C1=C(c2cccc3[nH]ccc23)CNCC1,156 °C
14,CC(C)(C)N1CC(COc2cccc3c2SCCC3)OC1=O (stereo unspecified),90 °C
15,C=C(C)C(=O)OCCC(=O)Oc1ccc(-c2cc(OC(=O)C(=C)C)cc(-c3ccc(OC(=O)CCOC(=O)C(=C)C)cc3)c2)cc1,88 °C
16,CC1CC(=O)NN=C1c1ccc(NC(=NC#N)NCc2ccccn2)cc1 (stereo unspecified),212 to 214 °C
17,O=C(O)c1cc(-c2ccc3c(c2)CCO3)nn(CCCc2ccc(Cl)cc2)c1=O,157 to 160 °C
18,O=C(Oc1ccc(Oc2ccc(C(F)(F)F)cn2)cc1)N1CCN(c2ncccc2C(F)(F)F)CC1,131 to 132 °C
19,CCOC(=O)Oc1cc(C(C)(C)C)oc(=O)c1-c1c(C)cc(C)cc1C,92 to 94 °C
20,COc1cc(Nc2c(C#N)cnc3cc(Br)ccc23)c(Cl)cc1F,200 to 202 °C
21,CC1CC(N2C(=O)c3ccccc3C2=O)C(=O)NC1=O (stereo unspecified),270 to 272 °C
22,O=C(Nc1ccccc1O)C1CCc2nc[nH]c2C1 (stereo unspecified),203 to 205 °C
23,Nc1ccc(-c2cnn3c(O)ncnc23)cc1,> 300 °C
24,CC(C)(C)c1ccccc1N1CCN(C(=O)c2ccccc2)CC1,104 to 106 °C
25,O=C1CC(O)CC(C=CC2=C(c3ccc(F)cc3)CC3CCC2C3)O1 (stereo unspecified),123 to 127 °C
26,O=C(NCCN1CCOCC1)N1c2ccccc2-c2noc3c2C1CCC3 (stereo unspecified),176 to 178 °C

row,Structure (SMILES),melting point
1,C=CC(=O)OCc1cn(CCCCCCCCCCCC)nn1,50 to 52 °C
2,CCCCNC(=O)CSc1nc(Cl)cc(Cl)n1,109 to 111 °C
3,CCOC(=O)CC(=O)c1ccc(-c2ccccc2)cc1,75 to 77 °C
4,CC1(C)CS(=O)(=O)c2ccccc2C1c1cncnc1S(C)(=O)=O (stereo unspecified),202 to 208 °C
5,CC(=O)C1=CCC2C3CCC4CC=CCC4(C)C3C(=O)CC12C (stereo unspecified),176 to 177 °C
6,COc1cc2c(c(OC)c1OC)OCC2=O,81 to 83 °C
7,Nc1ccc(C2(OC(=O)Nc3ccccc3)NCCC(c3ccccc3)O2)cc1 (stereo unspecified),110 °C
8,CCOC(=O)C1(C)C(=O)Nc2cc3[nH]c(-c4cnccn4)nc3cc21 (stereo unspecified),288 to 290 °C
9,COc1cccc(-c2cc3nccnc3[nH]2)c1,194 to 196 °C
10,CON(c1ccc([N+](=O)[O-])cc1C#N)S(=O)(=O)c1ccc(C(F)(F)F)cc1,134 to 135 °C
11,Cc1nc2c(N)nc3ccncc3c2n1C,330 to 335 °C
12,N#CCc1cc(C(=O)c2ccc(Cl)cc2)cn1Cc1ccccc1,102 to 104 °C
13,O=C(Oc1ccccc1)C(I)=C(I)I,83 to 84.5 °C
14,COc1cccc(CNC(=O)c2cc3c(=O)n(CC#N)c(=O)n(C)c3s2)c1,159 to 163 °C
15,CCCCCCCCCC/C=C/c1ccccc1/C=C/C(=O)O,85 to 86 °C
16,CCOc1nc2ccccc2nc1N(CC)C(=O)N1CCN(c2cc(Cl)cc(Cl)c2)CC1,115 to 117 °C
17,CC(C)Oc1ccccc1-c1nc2ccc(C(=O)O)cc2c(=O)[nH]1,316 to 318 °C
18,Cn1nnc(-c2ccc3c(ccn3-c3ccc(F)cc3)c2)n1,131 to 133 °C
19,CS(=O)(=O)c1ccc(-c2nc(C(F)(F)F)[nH]c2-c2ccc(F)c(F)c2)cc1,249 to 252 °C
20,Cc1ccc2c(c1)C(c1ccccc1)=NCc1nnc(CN(C)C)n1-2,154 to 156 °C
21,CN(C)C(=N)c1nn(-c2c(Cl)cc(C(F)(F)F)cc2Cl)c(N)c1S(=O)C(F)(F)F (stereo unspecified),123 to 126 °C
22,Cc1ccc(C2(O)CCCCC2C(c2ccccc2)N(C)C)cc1 (stereo unspecified),168 to 169 °C
23,COC(=O)c1ccccc1CN1CCN(c2nc(C)c(C(=O)NCc3ccccc3)s2)C1=O,130 to 133 °C
24,O=CNCC(=O)c1ccc(Cl)s1,111 to 113 °C
25,CC(=O)c1ccc2c(c1)C(C(Cl)(Cl)Cl)OC(C(Cl)(Cl)Cl)O2 (stereo unspecified),104 to 105 °C
26,CCNC(=O)c1ccc(Cc2ccccc2)cn1,77 to 78 °C

row,Structure (SMILES),melting point
1,Cc1ccc(C2c3c(C)c(N4C(=O)c5cc(Cl)c(Cl)cc5C4=O)c(C)c(C)c3OC2(C)C)cc1 (stereo unspecified),157 to 159 °C
2,COc1cc2c(cc1OC)N(C(=O)OCc1ccccc1)C(C)CC2=O (stereo unspecified),128 to 130 °C
3,CCCCc1cn(-c2ccccc2CC)c(=O)n1Cc1ccc(-c2ccccc2-c2nnn[nH]2)cc1,188 to 189 °C
4,C1=Cc2ccccc2C=CN1,186 to 190 °C
5,Nc1ncnc2c1ncn2Cc1oc2ccccc2c(=O)c1-c1ccc(F)cc1,212 to 216 °C
6,COc1cc2nc(-c3cc(C)c(O)c(C)c3)[nH]c(=O)c2cc1OC,> 300 °C
7,NC(=O)c1cc(OCCNCC(O)COc2ccccc2-c2cc3ccccc3[nH]2)ccc1O (stereo unspecified),93 to 95 °C
8,O=C(c1ccc(C(F)(F)F)cc1)N1CCC(=Cc2ccc(C3=NCCO3)cc2)CC1,142 °C
9,CSC1C(=O)Nc2c(Oc3ccc4ccccc4c3)cccc21 (stereo unspecified),174 to 175 °C
10,CC(=O)c1ccc2c(c1)C(=C1CCN(C)CC1)c1ccccc1S2,125 to 127 °C
11,CCOc1nc2c(N)nc3cccnc3c2n1CC1CCOCC1,197 to 200 °C
12,O=C(Cc1ccccc1)NN(C1=NCCS1)c1ccccc1,121 to 124 °C
13,O=C(O)CCCCc1c([N+](=O)[O-])cc(O)c(O)c1[N+](=O)[O-],135 to 139 °C
14,CC(C)(C)ON=C(C(=O)O)c1cccs1,106 to 107 °C
15,O=C(c1cccs1)c1cnn2c(-c3cccc(NC/C=C/c4ccccc4)c3)ccnc12,123 to 125 °C
16,COc1cc(C)nc(C(=O)O)n1,140 to 141 °C
17,CC(C)c1ccc(-c2ccc(C3N=C(c4ccccc4Cl)CC3C#N)cc2)cc1 (stereo unspecified),127 to 128 °C
18,CCCC(C)(C)NC(=S)Nc1cc(Cl)cc(Cl)c1,115 to 117 °C
19,CN(C)CC(C)(C)CNc1nccc(-c2c(-c3ccc(F)cc3Cl)nc3occn23)n1,124 to 126 °C
20,CC(C)c1cc(C(C)C)c(CC(=O)NS(=O)(=O)Oc2c(C(C)C)cc(C#N)cc2C(C)C)c(C(C)C)c1,79 to 84 °C
21,CC(C)(C)OC(=O)N1CCN(CC(=O)N2CCC3(CC2)Cn2cc([N+](=O)[O-])nc2O3)CC1,211 to 213 °C
22,CCCCCCCCCCCCCCCCOc1ccc(OCC(=O)N(Cc2ccccn2)C(C)=O)cc1,58 to 59 °C
23,CCOc1ccc(-c2nc(-c3ccc(N)c(C(=O)O)c3)cs2)cc1OCC,228 to 229 °C
24,CC1CCC(Nc2nccc(Oc3ccc(NC(=O)c4cc(F)cc(N5CCOCC5)c4)c4ccccc34)n2)CC1 (stereo unspecified),116 to 117 °C
25,CC(C)(CCC(C)(C)NCc1ccccc1O)NCc1ccccc1O,111 to 112 °C
26,NCCOc1ccc(CC2SC(=O)NC2=O)cc1 (stereo unspecified),175 to 176 °C

row,Structure (SMILES),melting point
1,CC(C)OC(=O)c1cc(-n2c(=O)c3c(n(C)c2=O)CCC3)ccc1Cl,148 to 150 °C
2,CCC1NC(=O)C2=C1c1ccc(Cl)cc1C(c1ccccc1Cl)=NC2 (stereo unspecified),233 to 235 °C
3,CCCn1cc2c(C3C(=O)Nc4ccc(Br)cc43)nc(NCc3ccncc3)nc2n1 (stereo unspecified),> 300 °C
4,COc1nccc2c1C(c1ccccc1C(F)(F)F)c1c(ccnc1OC(C)C)N2 (stereo unspecified),183 to 185 °C
5,Cc1c2c(c(C)n1-c1ccccc1)C(C)(C)OC2(C)C,113 to 116 °C
6,CC(C(=O)O)c1ccc(-c2ccccc2[N+](=O)[O-])cc1 (stereo unspecified),116 to 119 °C
7,CC1CN(N)C(=O)N1C (stereo unspecified),162 to 164 °C
8,Cc1nc2n(c(=O)c1CCO)CCCS2,155 °C
9,O=C1ON(c2ccccc2Cl)C(c2ccccc2)C1c1ccccc1 (stereo unspecified),178 to 180 °C
10,COc1ccc2c(c1OCCc1ccccc1)CC(C(=O)O)NC2 (racemic),232 to 235 °C
11,CCN1C2=C(C(=O)Nc3ccccc3F)C(=O)CCN2c2ccccc21,142 to 143 °C
12,O=C(c1cccc([N+](=O)[O-])c1)c1ccc(Oc2ccccc2)c([N+](=O)[O-])c1,135 to 136 °C
13,Cc1ccc2c(c1)N(CC(=O)c1ccco1)C(=O)C(NC(=O)Nc1cccc(C(=O)O)c1)CN2C(=O)C(C)(C)C (stereo unspecified),202 to 204 °C
14,Cc1cccc(-c2n[nH]cc2-c2ccc(F)c(-c3c[nH]c(C(C)(C)O)n3)c2)n1,135 to 137 °C
15,CCCOC(=O)Nc1nc(=O)n(C2OC(C)C(O)C2O)cc1F (stereo unspecified),125 to 126 °C
16,COCC(O)=C(N)C(=O)O,186 to 187 °C
17,O=C1NC(=O)C(Cc2ccc(OCCn3ncc4ccccc4c3=O)cc2)S1 (stereo unspecified),165 °C
18,COC(=O)c1ccc(Cc2cn(C)c3ccc(CCNC(=O)N4CCOCC4)cc23)c(OC)c1,160 to 161 °C
19,CCN(CC)Cc1ccc2cc(COc3cccc4c3CN(C3CCC(=O)NC3=O)C4=O)sc2c1 (stereo unspecified),190 to 192 °C
20,COC(=O)/C(=N/NC(N)=O)c1ccc(OCCOc2ccc3ccccc3c2)cc1,132 to 134 °C
21,C[C@@H]1OC=C[C@H](NC(=O)C(F)(F)F)[C@@]1(O)OC(=O)C(F)(F)F,73 to 74 °C
22,COC(=O)N1CC(=O)Nc2cccc(F)c21,170 to 172 °C
23,CCOC(=O)c1nc2ccccc2nc1CC,53 to 54 °C
